From ChEMBL document CHEMBL1135211, “Non-covalent thrombin inhibitors featuring P3-heterocycles with P1-bicyclic arginine surrogates” (Bioorg Med Chem Lett, 2002)

How the values were obtained:
[1] = biological target: Prothrombin (Homo sapiens, UniProt P00734); experiment: In vitro inhibitory activity against human Thrombin (FIIa) cleavage of the chromogenic substrate
[2] = Ionisation constant (pKa); format: physicochemical
[3] = Cmax in dog plasma after oral dose (1 mg/kg); format: ADME, organism-based, Canis lupus familiaris; design: dose 1 mg/kg, route oral
[4] = in vivo; conditions: dog, po, 1 mg/kg
[5] = in vivo; conditions: dog, po, 1 mg/kg; remark: listed apart in the source

| Compound | Ki [1] | pKa [2] | Cmax [3] | AUC ([4]; plasma) | half-life [5] | AUC ([4]; in vivo) |
| --- | --- | --- | --- | --- | --- | --- |
| COc1cccc(CCNc2ncc(C)n(CC(=O)NCc3ccc4[nH]ncc4c3)c2=O)c1 | 10.4 nM |  |  |  |  |  |
| Cc1cnc(NCCc2ccccc2)c(=O)n1CC(=O)NCc1ccc2nc(N)sc2c1 | > 3970 nM | 7.5 |  |  |  |  |
| Cc1cnc(NCCc2ccc3c(c2)CCC3)c(=O)n1CC(=O)NCc1ccc2[nH]ccc2c1 | 29.8 nM |  |  |  |  |  |
| Cc1cnc(NCCc2ccccc2)c(=O)n1CC(=O)NCc1ccc2cn[nH]c2c1 |  |  | 960 ng/mL | 2200 ng·h/mL | 0.417 h |  |
| Cc1ccc(NS(=O)(=O)c2ccc3c(c2)CCO3)c(=O)n1CC(=O)NCc1ccc2c[nH]nc2c1 | 1320 nM |  |  |  |  |  |
| Cc1cnc(NCCc2ccccn2)c(=O)n1CC(=O)NCc1ccc2[nH]ncc2c1 | 3.1 nM |  |  |  |  |  |
| Cc1ccc(NS(=O)(=O)Cc2ccccc2)c(=O)n1CC(=O)NCc1ccc2c(N)[nH]nc2c1 | 224 nM | 3.8 | 580 ng/mL | 1310 ng·h/mL | 1.4 h |  |
| COc1ccc(CCNc2ncc(C)n(CC(=O)NCc3ccc4[nH]cnc4c3)c2=O)cc1 | 5 nM | 5.8 | 190 ng/mL | 458 ng·h/mL | 1.52 h |  |
| Cc1cnc(NCCc2ccccc2)c(=O)n1CC(=O)NCc1ccc2[nH]nc(O)c2c1 | 33 nM | 6.3 | 30 ng/mL | 18.3 ng·h/mL |  |  |
| Cc1nc(N)ccc1CNC(=O)Cn1c(C)cnc(NCCc2ccccc2)c1=O [L-375378] | 1 nM |  | 900 ng/mL |  | 3.32 h | 4580 ng·h/mL |
| Cc1cnc(NCC2(c3ccc(F)cc3)CC2)c(=O)n1CC(=O)NCc1ccc2c(N)noc2c1 | 15.5 nM | 8.6 | 850 ng/mL | 3150 ng·h/mL | 2.17 h |  |
| Cc1cnc(NCC(F)(F)c2ccccc2)c(=O)n1CC(=O)NCc1ccc2[nH]nc(N)c2c1 | 4.1 nM | 3.6 | 960 ng/mL | 5930 ng·h/mL | 3.63 h |  |
| COc1ccc(C2(CNc3ncc(C)n(CC(=O)NCc4ccc5[nH]nc(N)c5c4)c3=O)CC2)cc1 | 9 nM | 3.6 | 1370 ng/mL | 3270 ng·h/mL | 1.48 h |  |
| Cc1ccc(NS(=O)(=O)Cc2ccc(Br)cc2)c(=O)n1CC(=O)NCc1ccc2c(N)noc2c1 | 22.2 nM | 8.6 | 1520 ng/mL | 5470 ng·h/mL | 1.82 h |  |
| Cc1ccc(NS(=O)(=O)Cc2ccccc2)c(=O)n1CC(=O)NCc1ccc2c(N)noc2c1 | 74.3 nM | 8.6 | 1600 ng/mL | 3680 ng·h/mL | 1.55 h |  |
| Cc1ccc(NS(=O)(=O)c2ccc3c(c2)CCO3)c(=O)n1CC(=O)NCc1ccc2[nH]nc(N)c2c1 | 28.7 nM | 3.6 | 230 ng/mL | 298 ng·h/mL | 1.2 h |  |
| Cc1cnc(NCC2(c3ccc(F)cc3)CC2)c(=O)n1CC(=O)NCc1ccc2[nH]nc(N)c2c1 | 15.4 nM | 3.6 | 880 ng/mL | 2950 ng·h/mL | 2.07 h |  |
| Cc1cnc(NCCc2ccccc2)c(=O)n1CC(=O)NCc1ccc2[nH]ncc2c1 | 18.4 nM |  |  |  |  |  |
| Cc1cnc(NCC2(c3ccccn3)CC2)c(=O)n1CC(=O)NCc1ccc2c(N)noc2c1 | 25.9 nM | 8.6 | 770 ng/mL | 2230 ng·h/mL | 1.67 h |  |

Further lines, results first:

| Ki [1] | pKa [2] | Cmax [3] | AUC ([4]; plasma) | half-life [5] | AUC ([4]; in vivo) | Compound |
| --- | --- | --- | --- | --- | --- | --- |
| 271 nM | 4 |  |  |  |  | Cc1cc2cn[nH]c2cc1CNC(=O)Cn1c(C)ccc(NS(=O)(=O)Cc2ccccc2)c1=O |
|  | 3.8 | 350 ng/mL | 1040 ng·h/mL | 1.85 h |  | COc1cccc(S(=O)(=O)Nc2cccn(CC(=O)NCc3ccc4c(N)[nH]nc4c3)c2=O)c1 |
| 23.7 nM |  | 310 ng/mL | 523 ng·h/mL | 1.4 h |  | CCc1cnc(NCCc2ccccc2)c(=O)n1CC(=O)NCc1ccc2[nH]ccc2c1 |
| 444 nM |  |  |  |  |  | Cc1n[nH]c2ccc(CNC(=O)Cn3c(C)cnc(NCCc4ccccc4)c3=O)cc12 |
| 325 nM | 3.6 | 930 ng/mL | 3950 ng·h/mL | 4.57 h |  | COc1cccc(S(=O)(=O)Nc2cccn(CC(=O)NCc3ccc4[nH]nc(N)c4c3)c2=O)c1 |
| 6.5 nM | 5.8 | 170 ng/mL | 202 ng·h/mL | 1.15 h |  | Cc1ccc(NS(=O)(=O)Cc2ccc(Cl)cc2)c(=O)n1CC(=O)NCc1ccc2[nH]cnc2c1 |
| 8.7 nM |  | 410 ng/mL | 515 ng·h/mL | 0.6 h |  | Cc1ccc(NS(=O)(=O)Cc2ccccc2)c(=O)n1CC(=O)NCc1ccc2[nH]ncc2c1 |
| 224 nM |  |  |  |  |  | Cc1cnc(NCCc2ccccc2)c(=O)n1CC(=O)NCc1ccc2[nH]nnc2c1 |
| 72.9 nM | 3.6 |  |  |  |  | Cc1ccc(NS(=O)(=O)Cc2ccccc2)c(=O)n1CC(=O)NCc1ccc2[nH]nc(N)c2c1 |
| 12400 nM | 7.4 |  |  |  |  | Cc1cnc(NCCc2ccc3c(c2)CCC3)c(=O)n1CC(=O)NCc1ccc2c(ccn2N)c1 |
| 31 nM | 8.6 | 300 ng/mL | 2200 ng·h/mL | 4.17 h |  | Cc1cnc(NCC(c2ccccc2)c2ccccc2)c(=O)n1CC(=O)NCc1ccc2c(N)noc2c1 |
| 3.9 nM |  |  |  |  |  | Cc1ccc(NS(=O)(=O)c2ccc3c(c2)CCO3)c(=O)n1CC(=O)NCc1ccc2[nH]ncc2c1 |
| 9.3 nM | 5.8 | 480 ng/mL | 1010 ng·h/mL | 1.15 h |  | Cc1cnc(NC[C@@H](C)c2ccccc2)c(=O)n1CC(=O)NCc1ccc2[nH]cnc2c1 |
| 10 nM | 6.3 |  |  |  |  | Cc1cnc(NCC2(c3ccccc3)CCC2)c(=O)n1CC(=O)NCc1ccc2[nH]nc(O)c2c1 |
| 17.6 nM | 8.6 | 640 ng/mL | 4680 ng·h/mL | 4.35 h |  | Cc1cnc(NCCc2ccc(F)cc2)c(=O)n1CC(=O)NCc1ccc2c(N)noc2c1 |
| 203 nM | 4.7 | 280 ng/mL | 237 ng·h/mL | 0.6 h |  | Cc1ccc(NS(=O)(=O)Cc2ccccc2)c(=O)n1CC(=O)NCc1ccc2c(N)noc2n1 |
|  | 5.8 | 390 ng/mL | 1630 ng·h/mL | 1.77 h |  | Cc1cnc(NCCc2ccccc2)c(=O)n1CC(=O)NCc1ccc2[nH]cnc2c1 |
| > 3970 nM | 6.4 |  |  |  |  | Cc1nc2cc(CNC(=O)Cn3c(C)cnc(NCCc4ccccc4)c3=O)ccc2[nH]1 |
|  | 8.2 | 240 ng/mL | 630 ng·h/mL | 2.2 h |  | Cc1ccc(NS(=O)(=O)Cc2ccccc2)c(=O)n1CC(=O)NCc1ccc2onc(N)c2c1 |
| 82.2 nM | 8.6 | 1030 ng/mL | 3950 ng·h/mL | 2.52 h |  | Cc1cnc(NCCc2ccccc2)c(=O)n1CC(=O)NCc1ccc2c(N)noc2c1 |
| 0.7 nM |  | 790 ng/mL |  | 1.78 h | 2670 ng·h/mL | Cc1nc(N)ccc1CNC(=O)Cn1c(C)ccc(NS(=O)(=O)Cc2ccccc2)c1=O [L-374087] |
| 5.7 nM |  |  |  |  |  | Cc1cnc(NC[C@H](C)c2ccccc2)c(=O)n1CC(=O)NCc1ccc2[nH]ncc2c1 |
| 1590 nM | 6.7 |  |  |  |  | Cc1ccc(NS(=O)(=O)Cc2ccccc2)c(=O)n1CC(=O)NCc1ccc2c(N)[nH]nc2n1 |
| 2.5 nM | 8.6 | 1200 ng/mL | 6030 ng·h/mL | 3.28 h |  | Cc1cnc(NCC(F)(F)c2ccccc2)c(=O)n1CC(=O)NCc1ccc2c(N)noc2c1 |
|  | 3.6 | 1030 ng/mL | 4850 ng·h/mL | 2.77 h |  | Cc1cnc(NCCc2ccccc2)c(=O)n1CC(=O)NCc1ccc2[nH]nc(N)c2c1 |
| 10.2 nM | 8.6 | 620 ng/mL | 2150 ng·h/mL | 1.95 h |  | Cc1cnc(NCC2(c3ccccc3)CCC2)c(=O)n1CC(=O)NCc1ccc2c(N)noc2c1 |
| 2.9 nM |  |  |  |  |  | Cc1cnc(NCCc2ccc3c(c2)CCO3)c(=O)n1CC(=O)NCc1ccc2[nH]ncc2c1 |
